Measured values published in US12427215B2, “Endoscope disinfectant” (Whiteley Corporation Pty Ltd, priority 2019, dated 2025).

Assay: Solubility of surfactants in the base formulation of Example 12
Type: physicochemical
Conditions: base solution of water, dipotassium hydrogen phosphate, potassium hydroxide, benzotriazole; without hydrotrope
Protocol: A base solution comprising 907.77 g deionised water, 46.22 g of anhydrous dipotassium hydrogen phosphate, 30.98 g of 48% w/w potassium hydroxide solution and 10.36 g benzotriazole was prepared. In the case of Surfadone LP100 and Makon NF12, these surfactants were insoluble in the base formulation, and so were solublised using the hydrotrope, Triton H66 (see formulations 12-D and 12-F).

solubility in the base formulation: insoluble
Structure (SMILES): CCCCCCCCN1CCCC1=O [Surfadone LP100, N-octyl-2-pyrrolidone]
